What was measured:
HT-29 cells = assay: Test A: in vitro cytotoxicity, clonogenic survival of HT-29 cells; assay type: cell-based, human; settings: 2 h drug treatment, colonies after 10 days, concentration at which there is a 1% cell survival
Source text: (§1) Test A: In Vitro Cytotoxicity (Clonogenic Survival of HT-29 and BE Cells):
(§2) The human colon carcinoma cell line HT-29 was obtained from the American Type Culture Collection (ATCC), and the BE cell line was provided by Dr. D. Ross, University of Colorado. A modification of the procedure described by Miribelli et al Cancer Research, 1985, 45, 32–39 was used to determine the clonogenic survival of the cells. HT-29 and BE cells in exponential growth were suspended in unsupplemented Eagles MEM medium (10 mL) at a final density of 1.7–2×10^5 cells/mL. Unsupplemented medium contains Minimum Essential Medium (Gibco) and HEPES (0.02 M). The drug stock solutions (0.1–40 mM) were prepared using either ethanol or dimethyl sulfoxide as solvent. The maximum amount of DMSO or ethanol used in the drug treatments was 1% of the total volume. Appropriate volumes (6.5 to 100 μL) of the drug stock solution were added to five vials of the cell suspensions, to give five different final drug concentrations, and 100 μL of solvent was added to a sixth vial for a control. The treated cells were incubated for 2 h (37° C., 5% CO2). The cells were spun down and rinsed three times with supplemented medium (3 mL) and then diluted in 5 mL of supplemented medium. Supplemented medium is prepared by adding Fetal Bovine Serum (10%), gentamicin (0.05 mg/mL), L-glutamine (0.03 mg/mL), and sodium pyruvate (0.1 mM) to unsupplemented medium. The cells were counted using a Coulter Counter and then plated at 2–3 different densities for each drug concentration and incubated for 10 days. The colonies were stained with 0.5% crystal violet in 95% ethanol and those colonies comprised of 50 or more cells were counted using a microscope and pen-style counter. The LC99 of each compound (the concentration at which there is a 1% cell survival) was determined by plotting the log surviving fraction vs. drug concentration.

BE cells = assay: Test A: in vitro cytotoxicity, clonogenic survival of BE cells; assay type: cell-based; settings: 2 h drug treatment, colonies after 10 days, concentration at which there is a 1% cell survival
Source text: as §1, §2

IGROV (ovarian) = assay: Growth inhibition, MTT assay, IGROV; assay type: cell-based, human; settings: 72-h drug exposure, read-out: IC50 growth inhibitory activity
Procedure: (§3) The growth inhibitory properties of representative compounds of the invention were also determined by evaluating their growth inhibitory activity against a series of human tumor cell lines using a 72-h drug exposure. Cell counts were measured using the MTT assay.

MDA231 (breast) = assay: Growth inhibition, MTT assay, MDA231; assay type: cell-based, human; settings: MDA231, 72-h drug exposure, read-out: IC50 growth inhibitory activity
Procedure: as §3

PC-3 (prostate) = assay: Growth inhibition, MTT assay, PC-3; assay type: cell-based, human; settings: PC-3, 72-h drug exposure, read-out: IC50 growth inhibitory activity
Procedure: as §3

HT-29 (colon) = assay: Growth inhibition, MTT assay, HT-29; assay type: cell-based, human; settings: HT-29, 72-h drug exposure, read-out: IC50 growth inhibitory activity
Procedure: as §3

PaCa-2 (pancreas) = assay: Growth inhibition, MTT assay, PaCa-2; assay type: cell-based, human; settings: PaCa-2, 72-h drug exposure, read-out: IC50 growth inhibitory activity
Procedure: as §3

A498 (kidney) = assay: Growth inhibition, MTT assay, A498; assay type: cell-based, human; settings: A498, 72-h drug exposure, read-out: IC50 growth inhibitory activity
Procedure: as §3

A549 (lung) = assay: Growth inhibition, MTT assay, A549; assay type: cell-based, human; settings: A549, 72-h drug exposure, read-out: IC50 growth inhibitory activity
Procedure: as §3

UMUC3 (bladder) = assay: Growth inhibition, MTT assay, UMUC3; assay type: cell-based, human; settings: UMUC3, 72-h drug exposure, read-out: IC50 growth inhibitory activity
Procedure: as §3

[1] = system: A4982LM cell line, a sub-line of the A498 human kidney carcinoma; assay: Xenograft model, human tumor cells subcutaneously in nude mice; assay type: in vivo; settings: Day 38, single dose of 25 mg/kg subcutaneously
Procedure: The cytotoxic properties of a compound of the invention can also be determined using in vivo pharmacological models which are well known to the art. For example, compound 16a was tested in a xenograft model. This assay consisted of injecting nude mice subcutaneously with human tumor cells. The tumors were allowed to grow until a measurable mass was present (22 days), and a single dose of 16a was administered subcutaneously. The tumor size was measured periodically and the growth inhibition of the tumor was determined. The A4982LM cell line, a sub-line of the A498 human kidney carcinoma, was used for the xenograft assay. The A4982LM sub-line, which has a high DT-diaphorase level (1010 nmol cytochrome c reduced/min/mg protein), was developed by implanting the A498 cell line in mice and collecting the lung metastases that formed from the original tumor.

[2] = Nucleophilic activation with sodium dimethyldithiocarbamate (DDTC) monitored by 31P NMR; assay type: physicochemical; settings: DDTC 3 equiv, 3:4 THF:0.4 M cacodylate buffer, pH ~7.3, RT
Procedure: The quinone was dissolved in CH3CN (0.3 mL, or THF for 16a) and the activating agent (glutathione, or sodium dithionite) was dissolved in cacodylate buffer (0.4 mL, 0.4 M, pH 7.7). The buffer solution was added to the organic solution and the pH of the mixture was adjusted to ˜7.4. The reaction mixture was transferred to a 5-mm NMR tube, and the data acquisition was started (pulse delay 30 μs). Spectra were taken every 2.5 minutes for 0.5 h, then every 5 min for 0.5 h, then every 10 min for 1 h, and time points for each spectrum were assigned from the initiation of the reaction. Chemical shifts are reported relative to the TPPO reference. The temperature of the probe was maintained at 37° C., if necessary, using the Bruker variable temperature unit. The relative concentrations of the intermediates were determined by measuring the peak areas.
The Michael addition of sulfur nucleophiles to naphthoquinones is well known; and addition to the 3-position of the quinone might provide another pathway for phosphorodiamidate anion release. Two possible products could be predicted from the Michael addition of a nucleophile to the naphthoquinone. […] Activation of 16a with DDTC (3 equiv, 3:4 THF:0.4 M cacodylate buffer, pH˜7.3, RT) was monitored using ^31P NMR. […]

human tumor cell lines = assay: Growth inhibition, MTT assay, series of human tumor cell lines (all cell lines); assay type: cell-based; settings: all cell lines of Table 2, 72-h drug exposure
Procedure: as §3

Question: Which results are given for `NP(=O)(OCC1=CC(=O)c2ccccc2C1=O)N(CCBr)CCBr` (stereo not shown) [Compound 16a, 2-(1,4-Naphthoquinonyl)methyl N,N-bis(2-bromoethyl) phosphorodiamidate]?
Answer: LC99 (HT-29 cells): 7.8 µM; LC99 (BE cells): 4.6 µM; IC50 (IGROV (ovarian)): 18.9 µM; IC50 (MDA231 (breast)): 14.7 µM; IC50 (PC-3 (prostate)): 9.19 µM; IC50 (HT-29 (colon)): 15.3 µM; IC50 (PaCa-2 (pancreas)): 4.42 µM; IC50 (A498 (kidney)): 15.6 µM; IC50 (A549 (lung)): 4.58 µM; IC50 (UMUC3 (bladder)): 2.82 µM; growth inhibition of the tumor [1]: 40%; time until quinone resonance disappeared and was replaced by phosphorodiamidate anion resonance [2]: ≤ 5 min; IC50 in words, against all cell lines (human tumor cell lines): low micromolar range

Reference: patent US7304046B2, “Phosphoramide compounds” (priority 1999, dated 2007)
